This is an account of results in patent US20250145645A1, “BORON CARRYING AGENT, PREPARATION METHOD AND PHARMACEUTICAL FORMULATION THEREOF” (Peking University, priority 2021, published 2025).

The test system of series [1] is rat cerebral 9L gliosarcoma. Particulars: cited from earlier work.
The test system of series [2] is U87MG, U251, A549 and A375 cell lines. The experiment in a line: Boron uptake in tumor cell lines, B content in cells by ICP-AES. In kind it is cell-based. The note with it: 0.1-0.8 mg/g aqueous solutions, 12 hours incubation, FIG. 1. The procedure: (§1) Compound I was formulated into aqueous solutions of 0.1 mg/g. 0.2 mg/g. 0.4 mg/g. 0.6 mg/g and 0.8 mg/g, added to U87MG, U251, A549 and A375 cell lines cultured in 25T petri dishes, respectively, and incubated in a thermostatic incubator for 12 hours. Subsequently, the cells and culture medium were separated, and the number of cells was determined. After the cells were digested with concentrated nitric acid, the B content in the cells was determined by ICP-AES.
(§2) The […] was 249.772 nm.

In series [3] the test system is cerebral glioma U87MG cells. The experiment in a line: Boron uptake in cells, B content by ICP-AES. It is filed as cell-based. Particulars: 12 hours, FIG. 3. The procedure: as §1, §2
(§3) Meanwhile, the BPA was formulated into aqueous solutions of 0.1 mg/g, 0.2 mg/g, 0.4 mg/g, 0.6 mg/g, and 0.8 mg/g, added into U87MG, U251, A375 and HS683 cell lines cultured in 25T petri dishes, respectively, and cultured in a thermostatic incubator for 12 hours. Subsequently, the cells and culture medium were separated, and the number of cells was determined. After the cells were digested with concentrated nitric acid, the B content in the cells was determined by ICP-AES and plotted as shown in FIG. 2.

The test system of series [4] is glioma cell line U251. Description: Boron uptake in cells, B content by ICP-AES. In kind it is cell-based. On the procedure: as §1, §2, §3
Series [5] relates to cerebral glioma HS683 cells. Description: Boron uptake in cells, B content by ICP-AES. It is filed as cell-based. The note with it: 12 hours, FIG. 3.
Series [6] concerns HS683 cerebral glioma. The experiment in a line: Tissue uptake in mouse cerebral glioma model, ICP-MS. It is filed as in vivo, BALB/c mice. The note with it: 500 mg/kg via tail vein, two hours after administration, FIG. 4. The procedure: Healthy BALB/c mice with an average weight of approximately 21 g were selected and inoculated with HS683 cerebral glioma to establish a mouse cerebral glioma model. After 21 days, the mouse cerebral glioma model was generated, and 500 mg/kg of BPA, temozolomide or compound I solution was injected via the tail vein of the mice. After administration, the major tissues and organs (heart, liver, spleen, lungs, kidneys and tumor sites) of the mice were removed at selected time periods (1 hour, 2 hours, and 4 hours). After washing and weighing, the tissues and organs were digested with concentrated nitric acid. The digested tissue sample was diluted and the concentration in the sample was determined by ICP-MS.

With `N[C@@H](Cc1ccc(B(O)O)cc1)C(=O)O` [BPA, ^10B-p-Dicarboxylboronic acid phenylalanine], the “uptake by other types of tumor cells” value in series [1] is on record as “taken up”.
For `Cn1nnc2c(C(=O)OCc3ccc([B-]45OCC[N+]4(C)CCO5)cc3)ncn2c1=O` (stereo not shown) [Compound I], the “boron concentration in the cells (B content in every 10^6 cells)” value in series [2] was “positively correlated with the concentration of the added product”. For the same molecule, the “cellular uptake compared with BPA” value in series [3] was “significantly higher than BPA”; in series [4] (U251 cells, 12 hours, FIG. 3), “significantly higher than BPA”; in series [5], “significantly higher than BPA”. Besides, in series [4] (U251 versus U87MG, A549, A375, within 12 hours), the “uptake, ranking among cell lines” value is given as “best uptake”. The “uptake in the mouse cerebral glioma site compared with BPA” value in series [6] is “higher than that of BPA”.
